EC50 data for 24 molecules are collected here from patent publication US10385022B2, “3-amino-pyridines as GPBAR1 agonists” (HOFFMANN-LA ROCHE INC., priority 2011, dated 2019).

The assay concerns the target human GPBAR1 receptor (Homo sapiens (Human), UniProt Q8TDU6). The assay can be described thus: functional cAMP assay in CHO-dhfr(minus) cells expressing human GPBAR1 receptors. The format is cell-based. The note with it: CHO-dhfr(minus) cells expressing human GPBAR1, 30 min at 30° C. The procedure, abridged:
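CHO-dhfr- cells were transfected with human GPBAR1, and a clone was chosen by cAMP response to lithocholic acid. EC50 values come from the cAMP read-out; specificity was checked in non-transfected CHO cells.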
(In general: cAMP levels reflect the balance of adenylyl cyclase and phosphodiesterase activity.)

human GPBAR1 receptor, sequence (Q8TDU6 whole entry): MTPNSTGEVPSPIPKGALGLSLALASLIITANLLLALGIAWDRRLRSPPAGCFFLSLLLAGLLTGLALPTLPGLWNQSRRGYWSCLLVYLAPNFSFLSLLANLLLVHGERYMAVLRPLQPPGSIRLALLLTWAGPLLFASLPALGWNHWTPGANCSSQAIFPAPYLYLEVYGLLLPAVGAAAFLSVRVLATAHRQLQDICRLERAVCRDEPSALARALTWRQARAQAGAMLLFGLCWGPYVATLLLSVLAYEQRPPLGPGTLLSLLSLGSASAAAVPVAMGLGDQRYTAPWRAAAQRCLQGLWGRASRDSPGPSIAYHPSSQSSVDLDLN

Molecule `COc1cc(F)c(F)cc1-c1ccncc1N(CCS(C)(=O)=O)C(=O)c1cc(C(F)(F)F)nc(C(F)(F)F)c1` [Example 158, N-[4-(4,5-Difluoro-2-methoxy-phenyl)-pyridin-3-yl]-N-(2-methanesulfonyl-ethyl)-2,6-bis-trifluoromethyl-isonicotinamide] registered an EC50 of 210 nM.
The result for `CS(=O)(=O)CCN(C(=O)c1cc(C(F)(F)F)nc(C(F)(F)F)c1)c1cnccc1-c1ccccc1F` [Example 159, N-[4-(2-Fluoro-phenyl)-pyridin-3-yl]-N-(2-methanesulfonyl-ethyl)-2,6-bis-trifluoromethyl-isonicotinamide] reads 326 nM; that for `COc1ncccc1-c1ccncc1N(CCS(C)(=O)=O)C(=O)c1cc(C(F)(F)F)nc(C(F)(F)F)c1` [Example 160, N-(2-Methanesulfonyl-ethyl)-N-(2-methoxy-[3,4′]bipyridinyl-3′-yl)-2,6-bis-trifluoromethyl-isonicotinamide], 281 nM.
The result for `Cc1ccccc1-c1ccncc1N(CC#N)C(=O)c1cc(C(F)(F)F)cc(C(F)(F)F)c1` [Example 161, N-Cyanomethyl-N-(4-o-tolyl-pyridin-3-yl)-3,5-bis-trifluoromethyl-benzamide] reads 29 nM.
Take `COc1cc(F)ccc1-c1ccncc1N(CCS(C)(=O)=O)C(=O)c1cc(C(F)(F)F)nc(C(F)(F)F)c1` [Example 162, N-[4-(4-Fluoro-2-methoxy-phenyl)-pyridin-3-yl]-N-(2-methanesulfonyl-ethyl)-2,6-bis-trifluoromethyl-isonicotinamide]: a half-maximal effect (EC50) was put at 101 nM.
Turning to `Cc1ccccc1-c1ccncc1N(CCS(C)(=O)=O)C(=O)c1cc(C(F)(F)F)nc(C(F)(F)F)c1` [Example 163, N-(2-Methanesulfonyl-ethyl)-N-(4-o-tolyl-pyridin-3-yl)-2,6-bis-trifluoromethyl-isonicotinamide], the EC50 was 99 nM.
The value for `Cc1ccccc1-c1ccncc1N(C)C(=O)c1cc(N)cc(C(F)(F)F)c1` [Example 164, 3-amino-N-methyl-N-(4-o-tolylpyridin-3-yl)-5-(trifluoromethyl)benzamide] was 1700 nM; that for `Cc1ccccc1-c1ccncc1N(CCC#N)C(=O)c1cc(C(F)(F)F)cc(C(F)(F)F)c1` [Example 165, N-(2-Cyano-ethyl)-N-(4-o-tolyl-pyridin-3-yl)-3,5-bis-trifluoromethyl-benzamide] was 153 nM.
The value for `CN(C(=O)c1cc(C(F)(F)F)cc(C(F)(F)F)c1)c1cnccc1C1=CCOCC1` [Example 166, N-[4-(3,6-Dihydro-2H-pyran-4-yl)-pyridin-3-yl]-N-methyl-3,5-bis-trifluoromethyl-benzamide] was 1780 nM; that for `COc1cccc(-c2ccncc2N(C)C(=O)c2cc(C(F)(F)F)cc(C(F)(F)F)c2)c1OC` [Example 167, N-[4-(2,3-Dimethoxy-phenyl)-pyridin-3-yl]-N-methyl-3,5-bis-trifluoromethyl-benzamide] was 2720 nM.
As to `CCc1ccccc1-c1ccncc1N(C)C(=O)c1cc(C(F)(F)F)cc(C(F)(F)F)c1` [Example 168, N-[4-(2-Ethyl-phenyl)-pyridin-3-yl]-N-methyl-3,5-bis-trifluoromethyl-benzamide], a half-maximal response (EC50) required 41 nM.
Regarding `COc1cc(F)ccc1-c1ccncc1N(C)C(=O)c1cc(Cl)nc(C(F)(F)F)c1` [Example 169, 2-Chloro-N-[4-(4-fluoro-2-methoxy-phenyl)-pyridin-3-yl]-N-methyl-6-trifluoromethyl-isonicotinamide], the EC50 stood at 26 nM.
The result for `COc1ncccc1-c1ccncc1N(CC(F)(F)F)C(=O)c1cc(C(F)(F)F)cc(S(=O)(=O)N(C)C)c1` [Example 170, 3-Dimethylsulfamoyl-N-(2-methoxy-[3,4′]bipyridinyl-3′-yl)-N-(2,2,2-trifluoro-ethyl)-5-trifluoromethyl-benzamide] reads 118 nM.
The value for `Cc1ccccc1-c1ccncc1N(C)C(=O)c1cc(Cl)nc(C(F)(F)F)c1` [Example 171, 2-Chloro-N-methyl-N-(4-o-tolyl-pyridin-3-yl)-6-trifluoromethyl-isonicotinamide] was 56 nM.
In turn, `COC(=O)CN(C(=O)c1cc(C(F)(F)F)cc(S(C)(=O)=O)c1)c1cnccc1-c1cc(F)c(F)cc1OC` [Example 172, [[4-(4,5-Difluoro-2-methoxy-phenyl)-pyridin-3-yl]-(3-methanesulfonyl-5-trifluoromethyl-benzoyl)-amino]-acetic acid methyl ester] displayed a 50% effective concentration (EC50) of 632 nM.
Molecule `COC(=O)CN(C(=O)c1cc(C(F)(F)F)nc(C(F)(F)F)c1)c1cnccc1-c1cc(F)c(F)cc1OC` [Example 173, {(2,6-Bis-trifluoromethyl-pyridine-4-carbonyl)-[4-(4,5-difluoro-2-methoxy-phenyl)-pyridin-3-yl]-amino}-acetic acid methyl ester] displayed an EC50 of 53 nM.
`COc1cc(F)c(F)cc1-c1ccncc1N(CC(N)=O)C(=O)c1cc(C(F)(F)F)nc(C(F)(F)F)c1` [Example 174, N-(2-Amino-2-oxoethyl)-N-(4-(4,5-difluoro-2-methoxyphenyl)pyridin-3-yl)-2,6-bis(trifluoromethyl)isonicotinamide] showed an EC50 of 54 nM.
Molecule `CN(C(=O)c1cc(C(F)(F)F)cc(C(F)(F)F)c1)c1cnccc1-c1ccccc1CC#N` [Example 175, N-[4-(2-Cyanomethyl-phenyl)-pyridin-3-yl]-N-methyl-3,5-bis-trifluoromethyl-benzamide] registered an EC50 of 571 nM.
The value for `COC(=O)CN(C(=O)c1cc(C(F)(F)F)nc(C(F)(F)F)c1)c1cnccc1-c1ccc(F)cc1OC` [Example 176, {(2,6-Bis-trifluoromethyl-pyridine-4-carbonyl)-[4-(4-fluoro-2-methoxy-phenyl)-pyridin-3-yl]-amino}-acetic acid methyl ester] was 14 nM; that for `COc1cc(F)ccc1-c1ccncc1N(CC(N)=O)C(=O)c1cc(C(F)(F)F)nc(C(F)(F)F)c1` [Example 177, N-Carbamoylmethyl-N-[4-(4-fluoro-2-methoxy-phenyl)-pyridin-3-yl]-2,6-bis-trifluoromethyl-isonicotinamide] was 36 nM.
The value for `COC(=O)CN(C(=O)c1cc(C(F)(F)F)cc(S(=O)(=O)N(C)C)c1)c1cnccc1-c1cccnc1OC` [Example 178, Methyl 2-(3-(N,N-dimethylsulfamoyl)-N-(2-methoxy-3,4′-bipyridin-3′-yl)-5-(trifluoromethyl)benzamido)acetate] was 49 nM; that for `COC(=O)CN(C(=O)c1cc(C(F)(F)F)cc(S(C)(=O)=O)c1)c1cnccc1-c1cccnc1OC` [Example 180, [(3-Methanesulfonyl-5-trifluoromethyl-benzoyl)-(2-methoxy-[3,4′]bipyridinyl-3′-yl)-amino]-acetic acid methyl ester] was 197 nM.
The value for `COc1ncccc1-c1ccncc1N(CC(N)=O)C(=O)c1cc(C(F)(F)F)cc(S(C)(=O)=O)c1` [Example 181, N-Carbamoylmethyl-3-methanesulfonyl-N-(2-methoxy-[3,4′]bipyridinyl-3′-yl)-5-trifluoromethyl-benzamide] was 2950 nM; that for `COC(=O)CN(C(=O)c1cc(C(F)(F)F)nc(C(F)(F)F)c1)c1cnccc1-c1cccnc1OC` [Example 182, Methyl 2-(N-(2-methoxy-3,4′-bipyridin-3′-yl)-2,6-bis(trifluoromethyl)isonicotinamido)acetate] was 27 nM.

By EC50 is commonly meant the concentration at which the effect is half-maximal. Lower therefore signals greater potency.
